Results: US8653237B2, “Peptide analogues” (MannKind Corporation, priority 2005, dated 2014)
Square brackets hold non-standard residues; d marks the D form. Peptide text beside a SMILES is read from it. Cha = N[C@@H](CC1CCCCC1)C(=O)O

Key:
HLA-A*0201 [1] = target: T1, HLA-A*0201 (Homo sapiens, UniProt P04439, D140Y/D185E/D98H/E176V/E277Q/G131W/G231S/I119V/I121R/I166T/I218V/L300P/L318F/N151K/N90K/P208A/P217A/Q86G/Q94H/R138H/R169H/T345S); experiment: Peptide binding using T2 cells (affinity to HLA-A*0201); design: endogenous in cells; host or cells: T2 cells; settings: peptide concentration giving 50% of the saturation signal on T2 cells
[2] = system: T cell lines against natural epitope SSX-241-49; experiment: Cross-reactivity and functional avidity: IFN-gamma production by T cell lines raised against natural SSX-2 41-49; type: cell-based, HHD transgenic mice; settings: T cells raised against native SSX-2 41-49 stimulated with analog, native = 1, lower = more active
[3] = system: T cell line specific for the native epitope PRAME425-433; experiment: Cross-reactivity: IFN-gamma secretion from T cell line specific for native PRAME425-433; type: cell-based, HHD transgenic mice; settings: analog peptide at approximately 0.304 (so in the source); normalized to native peptide
Method: At 7 days after the last boost, the mice were sacrificed and a suspension of splenocytes prepared at 5×10^6 […] cells/ml in complete HL-1 medium. Cells were incubated with different concentrations of peptide for 48 hours in flat-bottomed 96-well plates (200 μl/well) and for an additional 24 hours with rIL-2 at 10 U/ml added to the wells. The supernatant was harvested and the concentration of IFN-gamma assessed by standard methods such as ELISA.
The analogs listed in FIGS. 26-28 were tested for various properties such as improved affinity and stability of binding, cross-reactivity with the native epitope, and immunogenicity as follows in Examples 40-48. […] The observed affinities of the analogs are reported as % binding (compared to the positive control) and ED50, and stability of binding as half time of dissociation. Cross reactivity with the native epitope was assessed by using the analog peptides to stimulate IFN-gamma secretion from a T cell line specific for the native epitope, essentially as described in Example 6. The data shown in FIGS. 26-28 were generated by stimulating with analog peptide at approximately 0.304. […] In some cases, the reported values are the average of two determinations.

HLA-A*0201 [4] = target: T1, HLA-A*0201; experiment: iTopia affinity assay (ED50); type: binding
Excerpt: Avidin-coated microtiter plates containing class I monomer loaded with a so-called placeholder peptide were used to evaluate peptide binding, affinity and off-rate. The monomer-coated plates were supplied as part of the iTopia Epitope Discovery System Kit (Beckman Coulter, Inc., San Diego, Calif., USA). Assay buffers, anti-MHC-FITC mAb and beta2-microglobulin and control peptides were also supplied with the kits.
Plates were read on the fluorometer. Sigmoidal dose response curves were generated using Prism software.

CC[C@H](C)[C@H](NC(=O)[C@H](CCCCN)NC(=O)[C@H](CCC(=O)O)NC(=O)[C@H](CO)NC(=O)[C@H](Cc1cccc2ccccc12)NC(=O)[C@@H](N)CCCCN)C(=O)N[C@@H](Cc1ccccc1)C(=O)N[C@@H](Cc1ccc(O)cc1)C(=O)N[C@H](C(=O)O)C(C)C [SSX2 41-49 (A42(Nal-1)), KNal-1SEKIFYV]
Half-maximal Binding (HLA-A*0201 [1]): N/B

CC[C@H](C)[C@H](NC(=O)[C@H](CCCCN)NC(=O)[C@H](CCC(=O)O)NC(=O)[C@H](CO)NC(=O)[C@H](C)NC(=O)[C@@H](N)CC1CCCCC1)C(=O)N[C@@H](Cc1ccccc1)C(=O)N[C@@H](Cc1ccc(O)cc1)C(=O)N[C@H](C(=O)O)C(C)C [SSX2 41-49 (K41(Cha))] (H-[Cha]ASEKIFYV-OH)
Half-maximal Binding (HLA-A*0201 [1]): N/B

CC[C@H](C)[C@H](NC(=O)[C@H](CCCCN)NC(=O)[C@H](CCC(=O)O)NC(=O)[C@H](CO)NC(=O)[C@@H](NC(=O)[C@@H](N)Cc1ccccc1)C(C)C)C(=O)N[C@@H](Cc1ccccc1)C(=O)N[C@@H](Cc1ccc(O)cc1)C(=O)N(C)[C@H](C(=O)O)C(C)C [SSX2 41-49 (K41F, A42V, V49MeVal)]
Cross-reactivity and fct avidity (native to analogs) [2]: 10

Lys P1 analog: PRAME425-433 analog with Lys substituted for the Ser at the P1 position (KLLQHLIGL; UniProt P78395 425-433, looked up, variant S425K)
IFN-γ elicited, relative to native peptide [3]: 40%
Binding affinity (ED50) relative to native peptide (in words) (HLA-A*0201 [4]): reduced by almost 6-fold
